Assays:
IL-2 = IL-2 relative to DMSO; format: cell-based
[1] = Viability relative to DMSO; format: cell-based; design: concentration or dose not given beside the values
[2] = biological target: thalidomide binding domain (TBD) of cereblon (Homo sapiens, UniProt Q96SW2); experiment: Cereblon binding (DSF, FP/FI); details: for inhibition at 200 µM: read-out: Cereblon Binding (≥50% inhibition at 200 μM)
Protocol: Several libraries are available for screening inhibitors. Virtual analysis was formulated and then theoretical design of chemical test kit and virtual screen of test kit were carried out. Physical binding studies were also completed for the initial compounds using DSF and FP assays after they are fully tested. TEST KITs that represent the compounds identified from each of the available chemical libraries based on virtual chemical structures were also made.

thalidomide binding domain (TBD) of cereblon, sequence (Q96SW2 318-426 limits assumed): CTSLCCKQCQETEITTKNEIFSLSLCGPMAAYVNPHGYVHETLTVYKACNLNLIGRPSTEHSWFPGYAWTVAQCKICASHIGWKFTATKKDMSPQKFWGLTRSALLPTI

Row | Structure (SMILES) | IL-2 (%) (Relative to DMSO) (IL-2) | viability [1] [%] | inhibition at 200 µM [2] [%] | Cereblon Binding (≥50% inhibition at 200 μM) [2]
1 | Cc1nc2cccc(N)c2c(=O)n1C1CCC(=O)NC1=O (stereo not shown) | 283.4 | 84.4 | > 50 | 
2 | CNc1ccccc1C(=O)NCCn1ccc(=O)[nH]c1=O | 158.7 | 97 | > 50 | 
3 | O=C1NC(=O)c2ccccc21 | 110.8 | 92.4 |  | No
4 | O=C1CCC(NS(=O)(=O)c2cccc([N+](=O)[O-])c2)C(=O)N1 (stereo not shown) | 143.7 | 80 |  | Yes*
5 | CCNc1cccc(S(=O)(=O)NC2CCC(=O)NC2=O)c1 (stereo not shown) | 124.4 | 100 |  | Yes*
6 | CNc1ccccc1C(=O)NCCN1CCC(=O)NC1=O | 167.5 | 101 |  | Yes*
7 | COC(=O)c1ccccc1NC(=O)[C@H](CC(=O)NC1CCC(=O)NC1=O)NC(=O)OC(C)(C)C (stereo partly shown) | 25.0 | 85.6 |  | Yes*
8 | Nc1cc(Cl)ccc1C(=O)NCCN1CCC(=O)NC1=O | 14.1 | 78.7 |  | Yes*
9 | O=C1CCC(N2CCc3ccc([N+](=O)[O-])cc3C2)C(=O)N1 (stereo not shown) | 23.0 | 84.2 |  | Yes*
10 | O=C1CCC(N2CCc3ccc(O)cc3C2)C(=O)N1 (stereo not shown) | 32.2 | 102 |  | Yes*
11 | O=C1CCC(N2CCCC(c3ccccc3)C2)C(=O)N1 (stereo not shown) | 45.3 | 92.1 |  | Yes*
12 | O=C1CCC(NCCNC(=O)c2ccccc2)C(=O)N1 (stereo not shown) | 46.7 | 68.2 |  | Yes*
13 | O=C1CCC(=O)N1 | 199.7 | 75.3 | > 50 | 
14 | Cn1cncc1C(=O)NC1CCC(=O)NC1=O (stereo not shown) | 148.0 | 95.3 | > 50 | 
15 | O=C1CCC(NCc2ccco2)C(=O)N1 (stereo not shown) | 136.9 | 95.9 | > 50 | 
16 | O=C1CCC(NCc2ccccn2)C(=O)N1 (stereo not shown) | 7.8 | 84.9 | > 50 | 
17 | O=C1CCC(NCc2ccc(N3CCOCC3)cc2)C(=O)N1 (stereo not shown) | 14.9 | 94.5 | > 50 | 
18 | Cc1ccc(C(=O)NC2CCC(=O)NC2=O)o1 (stereo not shown) | 48.0 | 84.7 | > 50 | 
19 | C=CCCCCCCCCC(=O)NC1CCC(=O)NC1=O (stereo not shown) | 15.6 | 82.3 | > 50 | 
20 | Nc1cccc(S(=O)(=O)NC2CCC(=O)NC2=O)c1 (stereo not shown) | 127.0 | 99.7 | > 50 | 
21 | O=C1CCC(NC(=O)CCNS(=O)(=O)c2c(F)cccc2F)C(=O)N1 (stereo not shown) | 120.1 | 99.4 | > 50 | 

Row | Structure (SMILES) | IL-2 (%) (Relative to DMSO) (IL-2) | viability [1] [%] | inhibition at 200 µM [2] [%] | Cereblon Binding (≥50% inhibition at 200 μM) [2]
22 | O=C(NCCn1ccc(=O)[nH]c1=O)c1ccccc1 | 124.5 | 84.2 | > 50 | 
23 | O=C1CCC(NC(=O)CCNS(=O)(=O)c2ccccc2)C(=O)N1 (stereo not shown) | 32.7 | 77.2 | > 50 | 
24 | O=C1CCC(NC(=O)c2ccccc2NC(=O)CCl)C(=O)N1 (stereo not shown) | 40.3 | 69.9 | > 50 | 
25 | O=c1ccn(CCNS(=O)(=O)Cc2ccccc2)c(=O)[nH]1 | 138.2 | 76.7 | > 50 | 
26 | Nc1ccc(Cl)cc1C(=O)NCCN1CCC(=O)NC1=O | 20.6 | 78.8 | > 50 | 
27 | O=C1CCN(CCNC(=O)c2ccccc2)C(=O)N1 | 47.1 | 84.9 | > 50 | 
28 | CCN(Cc1ccccc1)C1CCC(=O)NC1=O (stereo not shown) | 32.1 | 99.1 | > 50 | 
29 | O=C1CCC(NCc2ccccc2)C(=O)N1 (stereo not shown) | 40.4 | 98 | > 50 | 
30 | O=C1CCC(N2CCC(c3ccccc3)CC2)C(=O)N1 (stereo not shown) | 41.5 | 100 | > 50 | 
31 | CN(Cc1ccc2c(c1)OCO2)C1CCC(=O)NC1=O (stereo not shown) | 43 | 106 | > 50 | 
32 | CC(=O)N[C@H](C(=O)NC1CCC(=O)NC1=O)C(C)C (stereo partly shown) | 126.4 | 79.4 |  | DSF (check) FI (borderline)
33 | NC(=O)[C@H](Cc1ccccc1)NC(=O)[C@@H]1CCC(=O)N1 | 39.8 | 74.7 |  | No
34 | Nc1cccc2c1C(=O)N(C1CC(=O)NC1=O)C2=O (stereo not shown) | 193.8 | 97 |  | No
35 | CN1C(=O)CCC(N2Cc3c(N)cccc3C2=O)C1=O.Cl (stereo not shown) | 199.2 | 106 |  | No
36 | O=C1c2ccccc2C(=O)N1c1cc[nH]c(=O)c1 | 123.3 | 95.3 |  | No
37 | COc1ccc(C2=NNC(=O)CC2)cc1OC | 12.4 | 100 |  | No
38 | O=C1CC[C@@H](C(=O)Nc2ccccc2)N1 | 0.5 | 106 |  | No
39 | O=C1CN(N2C(=O)c3cccc([N+](=O)[O-])c3C2=O)C(=O)N1 | 50.0 | 96.4 |  | No
40 | O=C1CC(N2C(=O)c3cccc([N+](=O)[O-])c3C2=O)C(=O)N1 (stereo not shown) | 133.4 | 81.9 |  | No
41 | Nc1cccc2c1CN([C@H]1CC(=O)NC1=O)C2=O | 124.9 |  |  | No
42 | Nc1ccccc1S(=O)(=O)NC1CCC(=O)NC1=O (stereo not shown) | 54.7 | 99.1 |  | Yes*

Row | Structure (SMILES) | IL-2 (%) (Relative to DMSO) (IL-2) | viability [1] [%] | inhibition at 200 µM [2] [%] | Cereblon Binding (≥50% inhibition at 200 μM) [2]
43 | CC(C)[C@H](NC(=O)c1ccccc1)C(=O)NC1CCC(=O)NC1=O (stereo partly shown) | 84.5 | 99.1 |  | Yes*
44 | O=C1CCC(NS(=O)(=O)c2ccc([N+](=O)[O-])cc2)C(=O)N1 (stereo not shown) | 56.3 | 93.4 |  | Yes*
45 | O=C1CCC(N2CCc3ccccc3C2)C(=O)N1 (stereo not shown) | 105.4 | 99.5 |  | Yes*
46 | O=C1CCC(N2CCc3ccccc32)C(=O)N1 (stereo not shown) |  | 98.7 |  | 
47 | O=C1CCC(N2Cc3ccccc3C2)C(=O)N1 (stereo not shown) | 69.0 | 84.8 |  | Yes*
48 | O=c1ccn(CCCc2ccccc2)c(=O)[nH]1 | 99.7 | 93.1 |  | Yes*
49 | O=c1ccn(Cc2ccccc2)c(=O)[nH]1 | 88.2 | 79.5 |  | Yes*
50 | O=c1ccn(CCNS(=O)(=O)c2ccccc2)c(=O)[nH]1 | 90.8 | 77.8 |  | Yes*
51 | O=c1ccn(CCCCc2ccccc2)c(=O)[nH]1 | 101.8 | 86.4 |  | Yes*
52 | O=c1ccn(CCCc2ccc(Cl)cc2)c(=O)[nH]1 | 93.9 | 90.7 |  | Yes*
53 | CNc1ccccc1C(=O)NCCn1cc(F)c(=O)[nH]c1=O | 75.1 | 79.2 |  | Yes*
54 | Nc1ccccc1C(=O)NCCn1cc(F)c(=O)[nH]c1=O | 109.0 | 89.7 |  | Yes*
55 | COc1ccc2c(c1)CCN(C1CCC(=O)NC1=O)C2 (stereo not shown) | 79.0 | 74.4 |  | Yes*
56 | O=C1CCC(NS(=O)(=O)c2ccc3c(c2)OCCCO3)C(=O)N1 (stereo not shown) | 61.6 | 73.6 |  | Yes*
57 | Nc1cc(Cl)ccc1C(=O)NCCn1ccc(=O)[nH]c1=O | 67.3 | 70.4 |  | Yes*
58 | Nc1ccc(Cl)cc1C(=O)NCCn1ccc(=O)[nH]c1=O | 51.2 | 74.8 |  | Yes*
59 | Cc1ccc(N)c(C(=O)NCCn2ccc(=O)[nH]c2=O)c1 | 83.7 | 75.2 |  | Yes*
60 | Nc1cccc(F)c1C(=O)NCCn1ccc(=O)[nH]c1=O | 107.0 | 95 |  | Yes*
61 | O=C1CCC(N2CCc3ccc(Cl)cc3C2)C(=O)N1 (stereo not shown) | 69.9 | 93.2 |  | Yes*
62 | Nc1ccc2c(c1)CCN(C1CCC(=O)NC1=O)C2 (stereo not shown) | 54.6 | 95.8 |  | Yes*
63 | Nc1cccc2c1CN(C1CCC(=O)NC1=O)C2=O (stereo not shown) [drawing 75] |  | 99.9 |  | 

Source: patent US12564583B2, “Small molecules against cereblon to enhance effector T cell function” (H. LEE MOFFITT CANCER CENTER AND RESEARCH INSTITUTE, INC., priority 2016, dated 2026)
